Test [1] in a line: Effective concentration against human Gamma delta T cells. The conditions noted are these: t-cell. Type of test: functional, cell-based.
Test [2] has as its system Dictyostelium discoideum. Kind of test: Inhibitory concentration against Dictyostelium discoideum cell growth. Type of test: functional, organism-based, Fungi.
Test [3] is filed under the species Mus musculus. Put plainly: In vitro inhibitory concentration against bone resorption in 17 day old fetal mouse metatarsals. Type of test: functional.

For orientation: EC50 means the concentration at which the effect is half-maximal. Higher therefore signals a need for much substance. By IC50 is commonly meant the concentration at which inhibition is half-maximal. Read a low IC50 as greater potency in that assay.

In test [1], `O=P([O-])(O)C(O)(C[n+]1ccc(Cc2ccccc2)cc1)P(=O)(O)O` (stereo unspecified) came in with a concentration giving a half-maximal response (EC50) of 150 µM. The compound also registered an IC50 in test [2] of 12 µM.

Compound `O=P([O-])(O)C(O)(C[n+]1ccccc1)P(=O)(O)O` (stereo unspecified) came in with an EC50 in test [1] of 4.8 µM. For the same compound, the figures for the 50% inhibitory concentration (IC50) in test [2] and in test [3] were 2.1 µM and 0.67 µM, respectively.

`CCc1ccc[n+](CC(O)(P(=O)([O-])O)P(=O)(O)O)c1` (stereo unspecified) displayed an EC50 in test [1] of 4.4 µM. This compound also gave an IC50 in test [2] of 5.6 µM.

Compound `O=P([O-])(O)C(O)(C[n+]1cccc(-c2ccccc2)c1)P(=O)(O)O` (stereo unspecified) had an EC50 in test [1] of 4.1 µM. Besides, the IC50 in test [2] came to 3.8 µM; in test [3], 0.41 µM.

Take `Cc1cccc(Cc2ccc[n+](CC(O)(P(=O)([O-])O)P(=O)(O)O)c2)c1` (stereo unspecified): the EC50 in test [1] turned out to be 44 µM. In addition, in test [2], the IC50 worked out at 9.2 µM.

In turn, `O=P([O-])(O)C(O)(C[n+]1cccc2cc(Cl)ccc21)P(=O)(O)O` (stereo unspecified) had an EC50 in test [1] of 56 µM. Also, the IC50 in test [2] was found to be 72 µM.

Consider `Nc1c[n+](CC(P(=O)([O-])O)P(=O)(O)O)ccn1` (stereo unspecified), for which it took 0.22 µM to reach half-maximal inhibition in test [3] (IC50).

Turning to `Cc1ccc[n+](CC(O)(P(=O)([O-])O)P(=O)(O)O)c1` (stereo unspecified), it took 4.5 µM to reach a half-maximal effect in test [1] (EC50). The IC50 in test [2] was found to be 1.5 µM; in test [3], 0.22 µM.

As to `O=P([O-])(O)C(O)(C[n+]1cccc(-c2ccc(O)cc2)c1)P(=O)(O)O` (stereo unspecified), the response in test [1] was half-maximal at 2.5 µM (EC50). This compound registered a 50% inhibitory concentration (IC50) in test [2] of 2.9 µM.

Consider `O=P([O-])(O)C(O)(C[n+]1cccc(F)c1)P(=O)(O)O` (stereo unspecified), for which the concentration for a half-maximal effect (EC50) in test [1] is 2.7 µM. Also, the half-maximal inhibitory concentration (IC50) in test [2] came out at 4.6 µM; in test [3] it was 0.075 µM.

Compound `COc1ccc[n+](CC(O)(P(=O)([O-])O)P(=O)(O)O)c1` (stereo unspecified) had a concentration for a half-maximal effect (EC50) in test [1] of 9.3 µM. The IC50 in test [2] worked out at 6 µM; in test [3], 0.37 µM.

`O=P([O-])(O)C(O)(C[n+]1cccc(Cc2ccccc2)c1)P(=O)(O)O` (stereo unspecified) displayed a 50% effective concentration (EC50) in test [1] of 91 µM. Besides, in test [2], it took 11 µM to reach half-maximal inhibition (IC50).

`CCCCc1ccc[n+](CC(O)(P(=O)([O-])O)P(=O)(O)O)c1` (stereo unspecified) gave a concentration giving a half-maximal response (EC50) in test [1] of 4.3 µM. Moreover, it took 2.9 µM to reach half-maximal inhibition in test [2] (IC50).

`O=P([O-])(O)C(O)(C[n+]1ccc2ccccc2c1)P(=O)(O)O` (stereo unspecified): in test [1], a half-maximal effect (EC50) was put at 30 µM. In test [2], this compound showed a half-maximal inhibitory concentration (IC50) of 20 µM.

On to `NCCCC(O)(P(=O)(O)O)P(=O)(O)O` [ALENDRONIC ACID], for which the response in test [1] was half-maximal at 32 µM (EC50). The compound also registered a half-inhibitory concentration (IC50) in test [3] of 0.29 µM.

`NCCC(O)(P(=O)(O)O)P(=O)(O)O` [PAMIDRONIC ACID] gave an EC50 in test [1] of 43 µM. The compound also showed a half-maximal inhibitory concentration (IC50) in test [3] of 1.6 µM.

As to `O=P(O)(O)C(O)(Cc1cccnc1)P(=O)(O)O` [RISEDRONIC ACID], a half-maximal response in test [1] (EC50) required 5 µM. In addition, inhibition in test [3] was half-maximal at 0.3 µM (IC50).

The compound `O=P(O)(O)C(O)(Cn1ccnc1)P(=O)(O)O` [ZOLEDRONIC ACID] came in with an EC50 in test [1] of 5.4 µM. Moreover, the 50% inhibitory concentration (IC50) in test [2] came out at 2.9 µM; in test [3], 0.034 µM.

Values taken from ChEMBL document CHEMBL1143607, “Pyridinium-1-yl bisphosphonates are potent inhibitors of farnesyl diphosphate synthase and bone resorption” (J Med Chem, 2005).
